Laboratory results: ChEMBL document CHEMBL4725259 (Bioorg Med Chem, 2020)
The source made the active and inactive calls. No cut-off for these calls is given here.

Columns and labels:
[1] = target: D(2) dopamine receptor (Homo sapiens) (UniProt P14416); assay: Antagonist activity at human DRD2L expressed in CHO-K1 cells at 20 uM by PathHunter beta-arrestin assay relative to control; type: cell-based; details: filed as antagonist
Vasopressin V2 receptor = Vasopressin V2 receptor (Homo sapiens, UniProt P30518); assay: Antagonist activity at human AVPR2 by PathHunter beta-arrestin assay
[2] = target: Vasopressin V1a receptor (Homo sapiens) (UniProt P37288); assay: Antagonist activity at AVPR1A in human U2OS cells at 20 uM by PathHunter beta-arrestin assay; type: cell-based; details: filed as antagonist
[3] = target: T1, Vasopressin V1b receptor (Homo sapiens) (UniProt P47901); assay: Antagonist activity at human AVPR1B expressed in CHO-K1 cells at 20 uM by PathHunter beta-arrestin assay; type: cell-based; details: filed as antagonist
T1 sequence (whole entry): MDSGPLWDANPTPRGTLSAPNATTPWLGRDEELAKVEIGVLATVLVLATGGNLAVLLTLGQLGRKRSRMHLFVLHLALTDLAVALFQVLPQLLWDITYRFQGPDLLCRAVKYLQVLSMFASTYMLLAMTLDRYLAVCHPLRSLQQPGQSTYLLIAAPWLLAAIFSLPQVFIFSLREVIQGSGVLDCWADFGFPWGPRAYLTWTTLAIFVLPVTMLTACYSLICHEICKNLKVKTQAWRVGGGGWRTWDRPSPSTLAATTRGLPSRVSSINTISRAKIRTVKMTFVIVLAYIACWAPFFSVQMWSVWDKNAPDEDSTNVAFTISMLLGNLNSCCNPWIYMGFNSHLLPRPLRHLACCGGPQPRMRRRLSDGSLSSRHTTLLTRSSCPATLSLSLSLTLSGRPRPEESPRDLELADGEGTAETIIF

[4] = target: T2, C-C chemokine receptor type 3 (Homo sapiens, UniProt P51677); assay: Antagonist activity at human CCR3 expressed in CHO-K1 cells by PathHunter beta-arrestin assay; type: cell-based
T2 sequence (P51677 whole entry): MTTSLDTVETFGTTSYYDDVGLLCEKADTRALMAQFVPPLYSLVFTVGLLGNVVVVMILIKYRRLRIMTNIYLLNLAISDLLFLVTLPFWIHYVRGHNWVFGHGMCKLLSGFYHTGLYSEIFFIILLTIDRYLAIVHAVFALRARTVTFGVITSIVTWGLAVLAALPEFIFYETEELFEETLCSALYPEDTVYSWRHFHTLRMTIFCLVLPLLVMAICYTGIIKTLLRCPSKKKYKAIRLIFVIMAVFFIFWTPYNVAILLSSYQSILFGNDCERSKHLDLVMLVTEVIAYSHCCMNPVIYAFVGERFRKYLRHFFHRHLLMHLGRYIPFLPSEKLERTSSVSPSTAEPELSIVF

[5] = target: C-C chemokine receptor type 8 (Homo sapiens, UniProt P51685); assay: Antagonist activity at human CCR8 expressed in CHO-K1 cells by PathHunter beta-arrestin assay; type: cell-based
[6] = target: T3, CX3C chemokine receptor 1 (Homo sapiens, UniProt P49238); assay: Antagonist activity at human CX3CR1 expressed in CHO-K1 cells by PathHunter beta-arrestin assay; type: cell-based
T3 sequence (P49238 whole entry): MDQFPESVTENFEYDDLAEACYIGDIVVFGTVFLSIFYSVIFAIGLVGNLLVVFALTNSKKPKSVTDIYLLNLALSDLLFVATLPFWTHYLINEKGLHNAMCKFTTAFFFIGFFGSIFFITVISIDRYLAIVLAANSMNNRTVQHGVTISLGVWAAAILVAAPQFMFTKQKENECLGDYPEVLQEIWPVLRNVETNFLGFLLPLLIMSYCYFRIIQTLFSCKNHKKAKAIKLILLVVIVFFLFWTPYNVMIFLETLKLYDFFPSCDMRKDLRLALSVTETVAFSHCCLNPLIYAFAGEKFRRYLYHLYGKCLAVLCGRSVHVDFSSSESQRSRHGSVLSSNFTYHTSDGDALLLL

[7] = target: C-X-C chemokine receptor type 4 (Homo sapiens, UniProt P61073); assay: Antagonist activity at human CXCR4 expressed in mouse C2C12 cells by PathHunter beta-arrestin assay; type: cell-based
Chain of C-X-C chemokine receptor type 4 (P61073 whole entry): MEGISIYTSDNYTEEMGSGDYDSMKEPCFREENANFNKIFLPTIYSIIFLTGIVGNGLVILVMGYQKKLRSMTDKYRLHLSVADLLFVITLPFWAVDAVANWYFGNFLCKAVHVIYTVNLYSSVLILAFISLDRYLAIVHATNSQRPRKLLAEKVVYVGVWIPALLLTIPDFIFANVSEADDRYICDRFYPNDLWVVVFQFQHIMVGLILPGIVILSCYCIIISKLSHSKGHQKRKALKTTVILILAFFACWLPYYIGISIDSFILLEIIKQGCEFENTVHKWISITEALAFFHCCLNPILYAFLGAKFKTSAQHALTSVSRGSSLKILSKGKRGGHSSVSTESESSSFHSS

Chain of Vasopressin V2 receptor (P30518 whole entry): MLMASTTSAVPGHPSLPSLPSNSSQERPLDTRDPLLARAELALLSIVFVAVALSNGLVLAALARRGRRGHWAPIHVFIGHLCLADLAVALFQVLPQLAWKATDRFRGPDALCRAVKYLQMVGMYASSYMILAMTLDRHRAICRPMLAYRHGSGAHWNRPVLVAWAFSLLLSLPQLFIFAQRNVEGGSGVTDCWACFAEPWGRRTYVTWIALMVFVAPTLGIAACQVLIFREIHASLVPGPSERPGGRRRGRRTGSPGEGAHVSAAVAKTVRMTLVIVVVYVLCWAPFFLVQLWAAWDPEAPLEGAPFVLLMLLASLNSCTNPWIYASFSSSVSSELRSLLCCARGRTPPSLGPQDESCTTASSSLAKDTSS
Chain of Vasopressin V1a receptor (Homo sapiens) (P37288 whole entry, looked up): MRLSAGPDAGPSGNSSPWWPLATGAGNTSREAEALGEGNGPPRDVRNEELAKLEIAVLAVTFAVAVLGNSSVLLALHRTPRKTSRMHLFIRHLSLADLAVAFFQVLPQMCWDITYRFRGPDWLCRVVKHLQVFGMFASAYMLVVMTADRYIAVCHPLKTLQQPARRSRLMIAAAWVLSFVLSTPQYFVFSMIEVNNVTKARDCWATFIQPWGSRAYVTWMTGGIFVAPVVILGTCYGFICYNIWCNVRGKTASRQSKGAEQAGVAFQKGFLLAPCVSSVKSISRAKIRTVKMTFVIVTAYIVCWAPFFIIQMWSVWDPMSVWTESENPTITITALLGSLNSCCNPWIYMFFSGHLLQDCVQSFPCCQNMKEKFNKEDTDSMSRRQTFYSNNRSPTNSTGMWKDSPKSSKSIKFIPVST
Chain of C-C chemokine receptor type 8 (P51685 whole entry): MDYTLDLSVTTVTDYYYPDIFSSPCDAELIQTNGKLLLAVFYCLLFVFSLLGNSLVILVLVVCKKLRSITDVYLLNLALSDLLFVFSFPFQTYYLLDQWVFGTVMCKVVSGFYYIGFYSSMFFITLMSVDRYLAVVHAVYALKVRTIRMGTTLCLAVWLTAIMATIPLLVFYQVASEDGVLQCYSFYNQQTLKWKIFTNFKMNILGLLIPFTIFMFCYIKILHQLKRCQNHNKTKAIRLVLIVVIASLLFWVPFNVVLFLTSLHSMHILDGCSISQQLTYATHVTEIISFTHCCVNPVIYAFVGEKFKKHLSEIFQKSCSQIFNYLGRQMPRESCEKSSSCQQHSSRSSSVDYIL
Chain of D(2) dopamine receptor (Homo sapiens) (P14416 whole entry): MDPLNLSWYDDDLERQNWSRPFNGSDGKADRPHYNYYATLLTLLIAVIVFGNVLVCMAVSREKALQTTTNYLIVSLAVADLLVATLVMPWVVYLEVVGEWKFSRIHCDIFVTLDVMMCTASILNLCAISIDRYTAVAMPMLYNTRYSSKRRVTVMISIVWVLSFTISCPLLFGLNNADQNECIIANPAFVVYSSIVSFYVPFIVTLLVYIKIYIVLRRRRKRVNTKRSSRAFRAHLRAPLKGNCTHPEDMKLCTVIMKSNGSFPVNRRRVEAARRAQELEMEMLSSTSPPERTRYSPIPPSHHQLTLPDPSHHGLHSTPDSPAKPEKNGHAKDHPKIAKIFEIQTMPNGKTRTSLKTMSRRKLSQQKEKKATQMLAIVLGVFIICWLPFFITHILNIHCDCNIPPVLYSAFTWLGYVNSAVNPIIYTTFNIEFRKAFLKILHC

## COC(=O)[C@@H]1[C@H]2C[C@@H]3N(CC[C@@]34C(=O)N(Cc3cccc(OC)c3)c3ccccc34)C[C@@H]2CC[C@@H]1OCc1cccc(OC)c1
[1]
  inhibition: 9%
Vasopressin V2 receptor
  IC50: Dose-dependent effect
Vasopressin V2 receptor; read-out: IC50
  IC50: 0.459 µM
[2]
  inhibition: Active
[3]
  inhibition: Active

## COC(=O)[C@@H]1[C@H]2C[C@@H](c3[nH]c4ccccc4c3CCn3cc(-c4cccc(Cl)c4)nn3)N(C#N)C[C@@H]2CC[C@@H]1O
[4]
  IC50: 8.3 µM
[5]
  IC50: 7.29 µM
[6]
  IC50: 8.47 µM
[7]
  IC50: 7.94 µM
